Results taken from patent US20260008739A1, “CRYSTAL AND FORMULATION OF REDUCED COENZYME Q10” (KANEKA CORPORATION, priority 2023, published 2026).

Assay: Oxidation stability of QH crystals on storage at 40° C. and 75% RH (HPLC of reduced and oxidized coenzyme Q10)
Type: physicochemical
Conditions: for Relative QH ratio: QH ratio before storage = 100; for Oxidizing rate: crystal stored at 40° C. and 75% RH for approximately 1 month, decrease in relative QH ratio divided by days of storage
Experimental: The QH crystals prepared in Examples 1 to 3 and Comparative Examples 1 and 2 above were stored at 40° C. and 75% RH in a thermostatic chamber for approximately 1 month. Before and after the storage, the reduced coenzyme Q10 content and the oxidized coenzyme Q10 content of the crystal were measured by HPLC (high performance liquid chromatography). On the basis of the measurement results, the below-described QH ratio, relative QH ratio after storage, and oxidizing rate were calculated.
• Column: AS12S05-1546WT (manufactured by YMC Co., Ltd.) 150 mm (in length) and 4.6 mm (in inner diameter) • Mobile phase: C2H3N: CH3OH=1:9 (v:v) • Detection wavelength: 290 nm • Flow rate: 1 ml/min
The “QH ratio” means the ratio of the amount of the reduced coenzyme Q10 to the total amount of the coenzyme Q10 present in the crystal, and is calculated in accordance with the following formula.
The “relative QH ratio after storage” is a value obtained by relativizing the QH ratio after storage on the basis of each of the QH ratios measured before the start of storage and after storage, assuming that the QH ratio before storage is 100. The relative QH ratio after storage is calculated in accordance with the following formula.
The “oxidizing rate” is a value obtained by dividing a change (amount of decrease) in the relative QH ratio in the period of storage by the number of days of storage, and is calculated in accordance with the following formula.

[1] = crystal stored at 40° C. and 75% RH for 28 days

| Compound | Relative QH ratio [1] | Oxidizing rate | Relative QH ratio (crystal stored at 40° C. and 75% RH for 29 days) |
| --- | --- | --- | --- |
| COc1c(O)c(C)c(C/C=C(\C)CC/C=C(\C)CC/C=C(\C)CC/C=C(\C)CC/C=C(\C)CC/C=C(\C)CC/C=C(\C)CC/C=C(\C)CC/C=C(\C)CCC=C(C)C)c(O)c1OC [Example 3, reduced coenzyme Q10] | 93.5 (when stored % | 0.23 %/day | – |
| COc1c(O)c(C)c(C/C=C(\C)CC/C=C(\C)CC/C=C(\C)CC/C=C(\C)CC/C=C(\C)CC/C=C(\C)CC/C=C(\C)CC/C=C(\C)CC/C=C(\C)CCC=C(C)C)c(O)c1OC [Example 1, reduced coenzyme Q10] | 91.6 (when stored % | 0.30 %/day | – |
| COc1c(O)c(C)c(C/C=C(\C)CC/C=C(\C)CC/C=C(\C)CC/C=C(\C)CC/C=C(\C)CC/C=C(\C)CC/C=C(\C)CC/C=C(\C)CC/C=C(\C)CCC=C(C)C)c(O)c1OC [Example 2, reduced coenzyme Q10] | 92.6 (when stored % | 0.26 %/day | – |
| COc1c(O)c(C)c(C/C=C(\C)CC/C=C(\C)CC/C=C(\C)CC/C=C(\C)CC/C=C(\C)CC/C=C(\C)CC/C=C(\C)CC/C=C(\C)CC/C=C(\C)CCC=C(C)C)c(O)c1OC [Comparative Example 1, reduced coenzyme Q10] | – | 0.48 %/day | 86.1 (when stored % |
| COc1c(O)c(C)c(C/C=C(\C)CC/C=C(\C)CC/C=C(\C)CC/C=C(\C)CC/C=C(\C)CC/C=C(\C)CC/C=C(\C)CC/C=C(\C)CC/C=C(\C)CCC=C(C)C)c(O)c1OC [Comparative Example 2, reduced coenzyme Q10] | 88.2 (when stored % | 0.42 %/day | – |
